Earlier results as cited in publication PMC3197600 (PLoS Pathogens, 2011).

Tested on: oseltamivir-resistant His274Tyr H1N1 infection
Settings: human, in vivo; cited from earlier work

## [H]/N=C(\N)N[C@H]1C=C(C(=O)O)O[C@@H]([C@H](OC)[C@H](O)COC(=O)CCCCCCC)[C@@H]1NC(C)=O [CS-8958, laninamivir octanoate]
  effectiveness compared with oseltamivir: not significantly better than oseltamivir
